For assay [1], the target named is Casein kinase I isoform delta (Homo sapiens, UniProt P48730). The assay can be described thus: Inhibition of full length recombinant human GST-tagged CSNK1D expressed in baculovirus expression system using casein as substrate incubated for 10 mins in presence of ATP by KinaseGlo luminescence assay. For orientation: Kinase-Glo reads ATP consumption through a luciferase reaction.

In assay [2] the target is Casein kinase 1, delta tv1 (Sus scrofa, UniProt M3VH47). The assay can be described thus: Inhibition of porcine brain CK-1delta using RRKHAAIGpSAYSITA peptide as substrate incubated for 30 mins in presence of [gamma-33P]-ATP by scintillation counting method.
Chain of Casein kinase 1, delta tv1 (M3VH47 whole entry): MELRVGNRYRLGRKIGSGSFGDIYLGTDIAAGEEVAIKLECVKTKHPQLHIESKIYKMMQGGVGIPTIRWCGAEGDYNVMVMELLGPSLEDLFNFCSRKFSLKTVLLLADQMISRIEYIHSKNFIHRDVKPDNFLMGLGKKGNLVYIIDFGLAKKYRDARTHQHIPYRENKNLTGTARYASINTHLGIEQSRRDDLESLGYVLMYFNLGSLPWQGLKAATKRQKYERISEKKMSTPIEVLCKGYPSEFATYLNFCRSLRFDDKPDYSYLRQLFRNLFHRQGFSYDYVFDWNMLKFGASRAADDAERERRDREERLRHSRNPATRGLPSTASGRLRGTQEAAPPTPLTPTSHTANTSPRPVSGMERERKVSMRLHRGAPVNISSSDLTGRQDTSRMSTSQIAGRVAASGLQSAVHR

Chain of Casein kinase I isoform delta (P48730 whole entry, canonical isoform): as the sequence (M3VH47 whole entry) above, with A340V, A401P, A406S, A412V counted along it

On to `Oc1cc(-c2cccc(Br)c2)nc2ccc3[nH]ccc3c12`, for which the IC50 – broadly, the concentration that gives 50% inhibition – in assay [1] came to 13 µM.
With `CCn1ccc2c3c(=O)cc(-c4cccc5ccccc45)[nH]c3ccc21`, the IC50 in assay [1] turned out to be 15.2 µM.
For `Nc1nccc(-c2c(-c3ccc(F)cc3)ncn2C2CCCCC2)n1`, in assay [2], the IC50 was 0.0077 µM.

For the origin of these results see ChEMBL document CHEMBL4616698, “Scaffold Repurposing of in-House Chemical Library toward the Identification of New Casein Kinase 1 δ Inhibitors” (ACS Med Chem Lett, 2020).
